These results are taken from article PMC6934184, “Selective DNA-PKcs inhibition extends the therapeutic index of localized radiotherapy and chemotherapy” (The Journal of Clinical Investigation, 2019).

In this test the target is T1, MAP4K4 (HGK) (Homo sapiens, UniProt O95819).
T1 construct: purchased Thermo Fisher Scientific (Life Technologies) SelectScreen
Put plainly: SelectScreen Z'LYTE. The test is classed as biochemical. The essentials:
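SelectScreen broad panel; activity (Z'LYTE, Adapta) plus binding formats. ATP: Km app for CSF1R Z'LYTE; 10 for CAMK1 Adapta. Readout = % per kinase.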

SMILES strings stand for the structures.

T1 sequence (O95819 whole entry): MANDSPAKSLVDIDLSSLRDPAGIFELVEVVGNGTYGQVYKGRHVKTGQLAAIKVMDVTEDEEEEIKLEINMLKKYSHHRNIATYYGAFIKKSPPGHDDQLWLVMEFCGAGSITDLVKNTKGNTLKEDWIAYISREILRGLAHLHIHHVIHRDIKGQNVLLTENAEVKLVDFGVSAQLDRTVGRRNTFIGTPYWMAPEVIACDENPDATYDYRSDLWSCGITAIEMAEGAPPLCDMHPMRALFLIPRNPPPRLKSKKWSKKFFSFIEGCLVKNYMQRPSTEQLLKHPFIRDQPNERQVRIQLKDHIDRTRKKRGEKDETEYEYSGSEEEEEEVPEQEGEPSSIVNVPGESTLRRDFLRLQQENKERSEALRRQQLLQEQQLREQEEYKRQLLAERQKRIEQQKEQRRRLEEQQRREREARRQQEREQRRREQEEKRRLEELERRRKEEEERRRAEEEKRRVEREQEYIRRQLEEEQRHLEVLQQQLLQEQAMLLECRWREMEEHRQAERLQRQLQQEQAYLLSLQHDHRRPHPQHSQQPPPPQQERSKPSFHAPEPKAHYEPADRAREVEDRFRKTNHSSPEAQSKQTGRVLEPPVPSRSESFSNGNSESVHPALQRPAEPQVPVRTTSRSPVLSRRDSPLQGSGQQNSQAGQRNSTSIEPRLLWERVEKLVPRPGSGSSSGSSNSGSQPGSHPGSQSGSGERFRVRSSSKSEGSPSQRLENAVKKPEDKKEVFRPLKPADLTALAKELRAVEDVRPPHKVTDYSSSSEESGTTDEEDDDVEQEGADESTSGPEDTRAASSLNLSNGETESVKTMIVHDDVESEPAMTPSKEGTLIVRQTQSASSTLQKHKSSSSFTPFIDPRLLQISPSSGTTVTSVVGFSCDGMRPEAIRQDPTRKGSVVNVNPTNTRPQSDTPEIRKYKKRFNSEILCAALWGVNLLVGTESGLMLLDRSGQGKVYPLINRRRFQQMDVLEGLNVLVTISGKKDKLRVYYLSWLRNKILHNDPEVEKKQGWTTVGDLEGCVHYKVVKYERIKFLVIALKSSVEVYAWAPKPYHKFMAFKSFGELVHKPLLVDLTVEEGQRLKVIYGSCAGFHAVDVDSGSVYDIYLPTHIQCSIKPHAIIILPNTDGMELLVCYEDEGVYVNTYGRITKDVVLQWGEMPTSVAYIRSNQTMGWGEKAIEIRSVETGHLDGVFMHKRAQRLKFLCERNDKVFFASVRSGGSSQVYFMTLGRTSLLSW

As for `CN(C(=O)CN1CCOCC1)c1ccc2sc3c(-c4cccc5c(=O)cc(N6CC7CCC(C6)O7)oc45)cccc3c2c1` [NU5455], the inhibition at 1 µM is -5.6%.
